Assay results reported in patent US8158821B2, “Crystal of 5-aminolevulinic acid phosphate and process for producing the same” (priority 2006, dated 2012).

How the values were obtained:
[1] = Test on moisture absorption resistance (change in mass on standing at 25° C. and 90% RH); assay type: physicochemical; settings: for ratio of change in mass: 25° C., 90% RH, 1 g solid, phosphate
Description: With regard to 5-aminolevulinic acid phosphate, moisture absorption resistance was evaluated by weighing out 1 g of each of the powder obtained by a conventional method (the method described in Example 1 of WO2005/100300 pamphlet) and the crystal obtained in Example 1, allowing it to stand under conditions of 25° C. and 90% RH, subsequently measuring mass after the passage of each period of time, and calculating a ratio of change in mass.

[2] = Thermal stability test (increase in PDPA content on heating, by liquid chromatography); assay type: physicochemical; settings: for Increase in PDPA concentration in solid: heating time 96 hr, phosphate
Description: With regard to 5-aminolevulinic acid phosphate, 1 g of each of the powder obtained by a conventional method (the method described in Example 1 of WO2005/100300 pamphlet) and the crystal obtained in Example 1 was weighed out and allowed to stand under each condition shown in Table 3. The amount of 2,5-pyrazinedipropionic acid (PDPA), which is an impurity generated by heating and a compound formed by dimerization of 5-aminolevulinic acid molecules, was measured by liquid chromatography. An increase in the content of PDPA in 5-aminolevulinic acid phosphate was calculated and thermal stability as a substance was evaluated.
Analytical conditions for liquid chromatography: separation column: μBondasphere C18 5μ 100 Å manufactured by Waters, eluent: a mixture of 2% aqueous acetic acid solution and methanol in a volume ratio of 90/10, flow rate: 1.0 mL/min, injection amount of sample: 50 μl, column temperature: 40° C., detector: UV detector (276 nm).

ratio of change in mass ([1]; time passed 1 hr) | ratio of change in mass ([1]; time passed 3 hr) | ratio of change in mass ([1]; time passed 5 hr) | ratio of change in mass ([1]; time passed 6 hr) | ratio of change in mass ([1]; time passed 7 hr) | ratio of change in mass ([1]; time passed 24 hr) | thermal stability (in words) ([2]; as compared with the conventional powder, Table 3) | Increase in PDPA concentration in solid ([2]; heating temperature 30° C.) | Increase in PDPA concentration in solid ([2]; heating temperature 60° C.) | Compound | moisture absorption resistance (in words) ([1]; as compared with the conventional powder, Table 2)
+0.05% | +0.06% | +0.09% | +0.08% | +0.09% | +0.4% | excellent in thermal stability | +0 ppm | −0 ppm | NCC(=O)CCC(=O)O.O=P(O)(O)O [Crystal, 5-aminolevulinic acid phosphate] | excellent in moisture absorption resistance
+6% | +11% | +14% | +16% | +17% | +21% |  | +10 ppm | +302 ppm | NCC(=O)CCC(=O)O.O=P(O)(O)O [Powder, 5-aminolevulinic acid phosphate] | 
